Earlier results in patent publication US8968725B2, “Genipin cross-linked fibrin gels” (University of Vermont and State Agricultural College, priority 2010, dated 2015).

Test system: mice
Settings: mouse, in vivo, iv

In the case of `COC(=O)C1=CO[C@@H](O)[C@H]2C(CO)=CC[C@H]12` [Genipin, Methyl (1R,2R,6S)-2-hydroxy-9-(hydroxymethyl)-3-oxabicyclo[4.3.0]nona-4,8-diene-5-carboxylate], the LD50 is listed as 382 mg/kg.
